The values that follow come from patent publication US8735406B2, “8-oxodihydropurine derivative” (Dainippon Sumitomo Pharma Co., Ltd., priority 2009, dated 2014).

The assay concerns the target T1, FAAH (Rattus norvegicus, UniProt P97612).
T1 construct: Preparation of Rat Brain Membranes Preparations (FAAH Enzyme Solution); from tissue; host or cells: rat cerebrum (brain membrane preparation)
T1 sequence (P97612 1-579): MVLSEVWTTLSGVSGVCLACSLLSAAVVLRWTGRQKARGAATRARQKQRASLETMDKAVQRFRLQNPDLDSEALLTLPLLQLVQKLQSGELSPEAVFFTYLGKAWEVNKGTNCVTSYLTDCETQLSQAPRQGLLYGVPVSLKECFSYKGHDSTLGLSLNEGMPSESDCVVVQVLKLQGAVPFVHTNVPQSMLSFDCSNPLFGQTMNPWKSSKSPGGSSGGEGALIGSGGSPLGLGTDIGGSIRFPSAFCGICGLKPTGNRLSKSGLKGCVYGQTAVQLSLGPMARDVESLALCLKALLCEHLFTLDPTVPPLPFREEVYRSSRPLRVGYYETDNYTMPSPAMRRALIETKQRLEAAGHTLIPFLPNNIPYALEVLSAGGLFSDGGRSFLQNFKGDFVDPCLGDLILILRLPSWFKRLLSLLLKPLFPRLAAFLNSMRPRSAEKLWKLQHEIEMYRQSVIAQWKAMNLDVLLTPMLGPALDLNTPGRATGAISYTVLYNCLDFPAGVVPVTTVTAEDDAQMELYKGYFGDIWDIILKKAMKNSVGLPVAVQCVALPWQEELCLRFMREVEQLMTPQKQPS
Briefly: Determination of FAAH inhibitory activity in rat (rat brain membrane preparations, [3H]-anandamide hydrolysis). Format: biochemical. To be noted: for inhibition at 0.1 µM: read-out: FAAH Inhibition, Inhibition Rate at 100 nM; for IC50: test substance 0.1 nM to 1 μM. In a few lines: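 Rat cerebrum membranes (100 μg/mL protein) preincubated 10 min at 37 °C with compound (1% DMSO) in pH 7.6 Tris buffer with 1.5% BSA. Substrate 2 nM [3H]-anandamide plus 2 μM anandamide added for 10 min at 37 °C. [3H]-ethanolamine in the aqueous phase after chloroform/methanol extraction was scintillation counted; IC50 over 0.1 nM–1 μM.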

Setting [1] is: rat brain membrane preparations, 100 nM test substance.
The mark [2] stands for this setting: rat brain membrane preparations, read-out: FAAH Inhibition IC50.

Like-named read-outs stand apart in the source and are kept apart here.

Regarding `COc1cccc(-c2ncc3c(n2)n(C)c(=O)n3C(=O)N(C)CCOc2ccc(F)cc2)c1` [Example 91, N-[2-(4-Fluorophenoxy)ethyl]-2-(3-methoxyphenyl)-N,9-dimethyl-8-oxo-8,9-dihydro-7H-purine-7-carboxamide], the inhibition (commonly the drop in the measured response relative to a control, in per cent) at 0.1 µM under setting [1] amounted to 103%. Further, the IC50 (in general, the concentration needed to halve the response being measured) under setting [2] came to 1 nM.
In the case of `COc1cccc(-c2ncc3c(n2)n(C)c(=O)n3C(=O)N(C)CCc2ccc(C(F)(F)F)cc2)c1` [Example 92, 2-(3-Methoxyphenyl)-N,9-dimethyl-8-oxo-N-{2-[4-(trifluoromethyl)phenyl]ethyl}-8,9-dihydro-7H-purine-7-carboxamide], under setting [1], the inhibition at 0.1 µM stood at 103%. In addition, the IC50 under setting [2] stood at 4 nM.
Take `COc1ccc(CCN(C)C(=O)n2c(=O)n(C)c3nc(-c4cccc(OC)c4)ncc32)cc1` [Example 93, 2-(3-Methoxyphenyl)-N-[2-(4-methoxyphenyl)ethyl]-N,9-dimethyl-8-oxo-8,9-dihydro-7H-purine-7-carboxamide]: the inhibition at 0.1 µM is 100%. Also, the IC50 under setting [2] amounted to 5 nM.
Regarding `COc1cccc(-c2ncc3c(n2)n(C)c(=O)n3C(=O)N2CC=C(/C=C/c3ccc(Cl)cc3)CC2)c1` [Example 94, 7-({4-[(E)-2-(4-Chlorophenyl)ethenyl]-3,6-dihydropyridin-1(2H)-yl}carbonyl)-2-(3-methoxyphenyl)-9-methyl-7,9-dihydro-8H-purine-8-one], the inhibition at 0.1 µM under setting [1] came to 101%. In addition, under setting [2], the IC50 was 7 nM.
The corresponding values for `COc1cccc(-c2ncc3c(n2)n(C)c(=O)n3C(=O)N2CC=C(/C=C/c3ccc(F)cc3)CC2)c1` [Example 95, 7-({4-[(E)-2-(4-Fluorophenyl)ethenyl]-3,6-dihydropyridin-1(2H)-yl}carbonyl)-2-(3-methoxyphenyl)-9-methyl-7,9-dihydro-8H-purine-8-one] are 101% and 3 nM.
The corresponding values for `COc1cccc(-c2ncc3c(n2)n(C)c(=O)n3C(=O)N2CCC(CCc3ccc(F)cc3)CC2)c1` [Example 96, 7-({4-[2-(4-Fluorophenyl)ethyl]piperidin-1-yl}carbonyl)-2-(3-methoxyphenyl)-9-methyl-7,9-dihydro-8H-purine 8-one] are 100% and 6 nM.
Take `COc1cccc(-c2ncc3c(n2)n(C)c(=O)n3C(=O)N2CCN(C3CCCCC3)CC2)c1` [Example 97, 7-[(4-Cyclohexylpiperazin-1-yl)carbonyl]-2-(3-methoxyphenyl)-9-methyl-7,9-dihydro-8H-purine-8-one]: the inhibition at 0.1 µM under setting [1] amounted to 99%. Besides, the IC50 under setting [2] amounted to 37 nM.
Consider `COc1cccc(-c2ncc3c(n2)n(C)c(=O)n3C(=O)N2CCN(C3CCCC3)CC2)c1` [Example 98, 7-[(4-Cyclopentylpiperazin-1-yl)carbonyl]-2-(3-methoxyphenyl)-9-methyl-7,9-dihydro-8H-purine-8-one], for which the inhibition at 0.1 µM under setting [1] is 93%. Also, the half-inhibitory concentration (IC50) under setting [2] stood at 40 nM.
The corresponding values for `COc1cccc(-c2ncc3c(n2)n(C)c(=O)n3C(=O)N2CCN(CC(F)(F)F)CC2)c1` [Example 99, 2-(3-Methoxyphenyl)-9-methyl-7-{[4-(2,2,2-trifluoroethyl)piperazin-1-yl]carbonyl}-7,9-dihydro-8H-purine-8-one] are 100% and 7 nM.
In the same order, the values of `COc1cccc(-c2ncc3c(n2)n(C)c(=O)n3C(=O)N2CCN(CCC3CCCCC3)CC2)c1` [Example 100, 7-{[4-(2-Cyclohexylethyl)piperazin-1-yl]carbonyl}-2-(3-methoxyphenyl)-9-methyl-7,9-dihydro-8H-purine-8-one] are 100% and 9 nM.
In the same order, the values of `COc1cccc(-c2ncc3c(n2)n(C)c(=O)n3C(=O)N2CCC(COc3ccccc3)CC2)c1` [Example 101, 2-(3-Methoxyphenyl)-9-methyl-7-{[4-(phenoxymethyl)piperidin-1-yl]carbonyl}-7,9-dihydro-8H-purine-8-one] are 102% and 7 nM.
`COc1cccc(-c2ncc3c(n2)n(C)c(=O)n3C(=O)N2CCC(=Cc3ccc(Cl)cc3)CC2)c1` [Example 102, 7-{[4-(4-Chlorobenzylidene)piperidin-1-yl]carbonyl}-2-(3-methoxyphenyl)-9-methyl-7,9-dihydro-8H-purine-8-one]: the inhibition at 0.1 µM under setting [1] is 101%. Besides, the IC50 under setting [2] is 5 nM.
Consider `COc1cccc(-c2ncc3c(n2)n(C)c(=O)n3C(=O)N(C)CCCl)c1` [Example 103, N-(2-Chloroethyl)-2-(3-methoxyphenyl)-N,9-dimethyl-8-oxo-8,9-dihydro-7H-purine-7-carboxamide], for which the inhibition at 0.1 µM was determined as 100%. The compound further gave an IC50 (FAAH Inhibition IC50, rat brain membrane preparations) of 7 nM.
For `COc1cccc(-c2ncc3c(n2)n(C)c(=O)n3C(=O)N(C)CCc2nc(-c3ccccc3)no2)c1` [Example 104, 2-(3-Methoxyphenyl)-N,9-dimethyl-8-oxo-N-[2-(3-phenyl-1,2,4-oxadiazol-5-yl)ethyl]-8,9-dihydro-7H-purine-7-carboxamide], the inhibition at 0.1 µM under setting [1] amounted to 101%. The IC50 under setting [2] is 3 nM.
In the same order, the values of `COc1cccc(-c2ncc3c(n2)n(C)c(=O)n3C(=O)N(C)CCc2ccc(Cl)c(Cl)c2)c1` [Example 105, N-[2-(3,4-Dichlorophenyl)ethyl]-2-(3-methoxyphenyl)-N,9-dimethyl-8-oxo-8,9-dihydro-7H-purine-7-carboxamide] are 108% and 1 nM.
In the same order, the values of `COc1cccc(-c2ncc3c(n2)n(C)c(=O)n3C(=O)N(C)CCC2=CCCCC2)c1` [Example 106, N-[2-(Cyclohex-1-en-1-yl)ethyl]-2-(3-methoxyphenyl)-N,9-dimethyl-8-oxo-8,9-dihydro-7H-purine-7-carboxamide] are 110% and 1 nM.
For the compound `CCCN(C)C(=O)n1c(=O)n(C)c2nc(-c3cccc(OC)c3)ncc21` [Example 107, 2-(3-Methoxyphenyl)-N,9-dimethyl-8-oxo-N-propyl-8,9-dihydro-7H-purine-7-carboxamide], under setting [1], the inhibition at 0.1 µM amounted to 101%. In addition, the IC50 under setting [2] turned out to be 7 nM.
In the case of `COc1cccc(-c2ncc3c(n2)n(C)c(=O)n3C(=O)N(C)CC(C)C)c1` [Example 108, 2-(3-Methoxyphenyl)-N,9-dimethyl-N-(2-methylpropyl)-8-oxo-8,9-dihydro-7H-purine-7-carboxamide], the inhibition at 0.1 µM under setting [1] is 94%. Moreover, under setting [2], the IC50 worked out at 22 nM.
The corresponding values for `COc1cccc(-c2ncc3c(n2)n(C)c(=O)n3C(=O)N(C)CCC2CCCCC2)c1` [Example 109, N-(2-Cyclohexylethyl)-2-(3-methoxyphenyl)-N,9-dimethyl-8-oxo-8,9-dihydro-7H-purine-7-carboxamide] are 103% and 2 nM.
The corresponding values for `COc1cccc(-c2ncc3c(n2)n(C)c(=O)n3C(=O)N(C)CCc2ccc(Cl)cc2Cl)c1` [Example 110, N-[2-(2,4-Dichlorophenyl)ethyl]-2-(3-methoxyphenyl)-N,9-dimethyl-8-oxo-8,9-dihydro-7H-purine-7-carboxamide] are 103% and 3 nM.
The corresponding values for `COc1cccc(-c2ncc3c(n2)n(C)c(=O)n3C(=O)N(C)CCN2CCOCC2)c1` [Example 111] are 46% and 60 nM.
For the compound `COc1cccc(-c2ncc3c(n2)n(C)c(=O)n3C(=O)N2CCC(/C=C/c3ccc(Cl)cc3)CC2)c1` [Example 112, 7-({4-[(E)-2-(4-Chlorophenyl)ethenyl]piperidin-1-yl}carbonyl)-2-(3-methoxyphenyl)-9-methyl-7,9-dihydro-8H-purine-8-one], under setting [1], the inhibition at 0.1 µM is 103%. Besides, the IC50 under setting [2] turned out to be 4 nM.
In the same order, the values of `COc1cccc(-c2ncc3c(n2)n(C)c(=O)n3C(=O)N(C)CCc2ccc(N(C)C)cc2)c1` [Example 113, N-{2-[4-(Dimethylamino)phenyl]ethyl}-2-(3-methoxyphenyl)-N,9-dimethyl-8-oxo-8,9-dihydro-7H-purine-7-carboxamide] are 103% and 3 nM.
Take `COc1cccc(-c2ncc3c(n2)n(C)c(=O)n3C(=O)N(C)CCc2ccccn2)c1` [Example 114, 2-(3-Methoxyphenyl)-N,9-dimethyl-8-oxo-N-[2-(pyridin-2-yl)ethyl]-8,9-dihydro-7H-purine-7-carboxamide]: the inhibition at 0.1 µM under setting [1] worked out at 103%. The IC50 under setting [2] was found to be 2 nM.
In the same order, the values of `COc1cccc(-c2ncc3c(n2)n(C)c(=O)n3C(=O)N(C)CCc2ccncc2)c1` [Example 115, 2-(3-Methoxyphenyl)-N,9-dimethyl-8-oxo-N-[2-(pyridin-4-yl)ethyl]-8,9-dihydro-7H-purine-7-carboxamide] are 103% and 5 nM.
